Tested on: plants
Assay: Test D post-emergence, other plants of Tables D2 and D4
Format: in vivo
Conditions: for damage to plant (100=total damage to plant; 0=no damage to plant), ABUTH / damage to plant (100=total damage to plant; 0=no damage to plant), AMARE / damage to plant (100=total damage to plant; 0=no damage to plant), BIDPI / damage to plant (100=total damage to plant; 0=no damage to plant), BRAPL / damage to plant (100=total damage to plant; 0=no damage to plant), CYPES / damage to plant (100=total damage to plant; 0=no damage to plant), DIGSA / damage to plant (100=total damage to plant; 0=no damage to plant), ECHCG / damage to plant (100=total damage to plant; 0=no damage to plant), ELEIN / damage to plant (100=total damage to plant; 0=no damage to plant), EPHHL / damage to plant (100=total damage to plant; 0=no damage to plant), GLXMA / damage to plant (100=total damage to plant; 0=no damage to plant), IPOHE / damage to plant (100=total damage to plant; 0=no damage to plant), ORYSA / damage to plant (100=total damage to plant; 0=no damage to plant), PANMI / damage to plant (100=total damage to plant; 0=no damage to plant), SETFA / damage to plant (100=total damage to plant; 0=no damage to plant), SORVU: post-emergence
Method in brief: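 Seeds treated with herbicide safener; sown in soil; glasshouse, 16 h light, 65% humidity. Sprayed day 1 (pre) or ~day 12 (post). Spray in 0.2% v/v adjuvant. Scored 0–100 damage: 20 DAA pre, 15 d post.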

[1] = "Cereals" Postemergent, Rates 130, evaluated after 15 d
[2] = "Cereals" Postemergent, Rates 250, evaluated after 15 d
[3] = "Cereals" Postemergent, Rates 500, evaluated after 15 d

COc1c(F)cccc1NC(=O)C1C(=O)N(C)CC1c1cc(C(F)(F)F)n(C)n1 (racemic) [Compound 18]
60: damage to plant (100=total damage to plant; 0=no damage to plant), BRAPL (rate 130, evaluated after 15 d) | damage to plant (100=total damage to plant; 0=no damage to plant), DIGSA (rate 250, evaluated after 15 d) | damage to plant (100=total damage to plant; 0=no damage to plant), ECHCG (rate 250, evaluated after 15 d)
0: STEME damage rating (100=total damage to plant; 0=no damage to plant) [1] | STEME damage rating (100=total damage to plant; 0=no damage to plant) [2] | VERPE damage rating (100=total damage to plant; 0=no damage to plant) [1] | VERPE damage rating (100=total damage to plant; 0=no damage to plant) [2] | damage to plant (100=total damage to plant; 0=no damage to plant), ABUTH (rate 130, evaluated after 15 d) | damage to plant (100=total damage to plant; 0=no damage to plant), ABUTH (rate 250, evaluated after 15 d) | damage to plant (100=total damage to plant; 0=no damage to plant), AMARE (rate 130, evaluated after 15 d) | damage to plant (100=total damage to plant; 0=no damage to plant), BIDPI (rate 130, evaluated after 15 d) | damage to plant (100=total damage to plant; 0=no damage to plant), BIDPI (rate 250, evaluated after 15 d) | damage to plant (100=total damage to plant; 0=no damage to plant), CYPES (rate 130, evaluated after 15 d) | damage to plant (100=total damage to plant; 0=no damage to plant), CYPES (rate 250, evaluated after 15 d) | damage to plant (100=total damage to plant; 0=no damage to plant), CYPES (rate 500, evaluated after 15 d) | damage to plant (100=total damage to plant; 0=no damage to plant), ECHCG (rate 130, evaluated after 15 d) | damage to plant (100=total damage to plant; 0=no damage to plant), ELEIN (rate 130, evaluated after 15 d) | damage to plant (100=total damage to plant; 0=no damage to plant), ELEIN (rate 250, evaluated after 15 d) | damage to plant (100=total damage to plant; 0=no damage to plant), ELEIN (rate 500, evaluated after 15 d) | damage to plant (100=total damage to plant; 0=no damage to plant), EPHHL (rate 130, evaluated after 15 d) | damage to plant (100=total damage to plant; 0=no damage to plant), GLXMA (rate 130, evaluated after 15 d) | damage to plant (100=total damage to plant; 0=no damage to plant), GLXMA (rate 250, evaluated after 15 d) | damage to plant (100=total damage to plant; 0=no damage to plant), GLXMA (rate 500, evaluated after 15 d) | damage to plant (100=total damage to plant; 0=no damage to plant), IPOHE (rate 130, evaluated after 15 d) | damage to plant (100=total damage to plant; 0=no damage to plant), ORYSA (rate 130, evaluated after 15 d) | damage to plant (100=total damage to plant; 0=no damage to plant), ORYSA (rate 250, evaluated after 15 d) | damage to plant (100=total damage to plant; 0=no damage to plant), ORYSA (rate 500, evaluated after 15 d) | damage to plant (100=total damage to plant; 0=no damage to plant), PANMI (rate 130, evaluated after 15 d) | damage to plant (100=total damage to plant; 0=no damage to plant), SETFA (rate 130, evaluated after 15 d) | damage to plant (100=total damage to plant; 0=no damage to plant), SORVU (rate 130, evaluated after 15 d) | damage to plant (100=total damage to plant; 0=no damage to plant), SORVU (rate 250, evaluated after 15 d) | damage to plant (100=total damage to plant; 0=no damage to plant), SORVU (rate 500, evaluated after 15 d)
10: damage to plant (100=total damage to plant; 0=no damage to plant), AMARE (rate 250, evaluated after 15 d) | damage to plant (100=total damage to plant; 0=no damage to plant), EPHHL (rate 250, evaluated after 15 d) | damage to plant (100=total damage to plant; 0=no damage to plant), PANMI (rate 250, evaluated after 15 d) | damage to plant (100=total damage to plant; 0=no damage to plant), PANMI (rate 500, evaluated after 15 d)
20: STEME damage rating (100=total damage to plant; 0=no damage to plant) [3] | damage to plant (100=total damage to plant; 0=no damage to plant), AMARE (rate 500, evaluated after 15 d) | damage to plant (100=total damage to plant; 0=no damage to plant), BIDPI (rate 500, evaluated after 15 d) | damage to plant (100=total damage to plant; 0=no damage to plant), EPHHL (rate 500, evaluated after 15 d) | damage to plant (100=total damage to plant; 0=no damage to plant), IPOHE (rate 250, evaluated after 15 d)
30: damage to plant (100=total damage to plant; 0=no damage to plant), ABUTH (rate 500, evaluated after 15 d) | damage to plant (100=total damage to plant; 0=no damage to plant), DIGSA (rate 130, evaluated after 15 d) | damage to plant (100=total damage to plant; 0=no damage to plant), IPOHE (rate 500, evaluated after 15 d) | damage to plant (100=total damage to plant; 0=no damage to plant), SETFA (rate 250, evaluated after 15 d)
70: damage to plant (100=total damage to plant; 0=no damage to plant), BRAPL (rate 250, evaluated after 15 d) | damage to plant (100=total damage to plant; 0=no damage to plant), DIGSA (rate 500, evaluated after 15 d) | damage to plant (100=total damage to plant; 0=no damage to plant), ECHCG (rate 500, evaluated after 15 d) | damage to plant (100=total damage to plant; 0=no damage to plant), SETFA (rate 500, evaluated after 15 d)
80: damage to plant (100=total damage to plant; 0=no damage to plant), BRAPL (rate 500, evaluated after 15 d)
40: SINAR damage rating (100=total damage to plant; 0=no damage to plant) (SINAR, "Cereals" Postemergent, Rates 500, evaluated after 15 d) | VERPE damage rating (100=total damage to plant; 0=no damage to plant) [3]

From US20220281848A1, “PYRAZOLE-SUBSTITUTED PYRROLIDINONES AS HERBICIDES” (FMC Corporation, priority 2019, published 2022)
